# “Also recorded” adds a separate entry of the source. Like-named read-outs stand apart in the source and are kept apart here. Positions of bridges follow the written chain, without caps; N, C: chain ends. Residues, ends and D or L forms follow the SMILES beside them. No end group written: not given here.
# Experiments:
# [1] = molecular target: T1, αvβ3 integrin on U87MG glioblastoma cells (Homo sapiens, UniProt P05106+P06756); assay: 125I-echistatin competition binding to U87MG glioblastoma cells; conditions: read-out: IC50, competition with 125I-echistatin, U87MG tumor cells
# T1 construct: host or cells: U87MG glioblastoma cells
# Description: FIG. 9 is a graph showing normalized competition plotted against peptide concentration in an integrin-binding assay on U87MG glioblastoma cells.
# U87MG glioblastoma cells, which express ˜10^5 αvβ3 integrin receptors per cell, were used for these studies. […] An EETI-based polypeptide with a scrambled RDG amino acid sequence, designated FN-RDG, served as a negative control.
# Half-maximal inhibitory concentrations (IC50) […] of data measured on at least three separate days. Data for unlabeled and Cy5.5-labeled peptides are shown. Site-specific labeling of RGD miniproteins with a near-infrared optical imaging probe: The free N-terminal amine of our polypeptides was used for site-specific attachment of Cy5.5, a near infrared imaging probe.
# An αvβ3 integrin receptor binding assay is performed to determine the relative affinities of the mock-PET tracers compared to their unlabeled polypeptides. Briefly, 2×10^5 U87MG glioblastoma cells are incubated with 0.06 nM ^125I-echistatin in integrin binding buffer (25 mM Tris-HCl, pH 7.4, 150 mM NaCl2 1 mM CaCl2 1 mM MgCl2, 1 mM MnCl2, 0.1% BSA), in the presence of increasing concentrations of mock-PET tracers at room temperature. After incubation for 3 h, cells are pelleted by centrifugation at 1500 RPM and washed three times in binding buffer to remove unbound ligands. The radioactivity remaining in the cell pellet is measured by γ counting. IC50 values are determined by plotting the % competition and using a four-point binding equation (Kaleidagraph) to fit the data.
# α5β1 integrin = α5β1 integrin (Homo sapiens, UniProt P05556+P08648); assay: Competition of 125I-echistatin to detergent-solubilized plate-coated integrin; format: binding; conditions: 0.06 nM 125I echistatin, 5 nM and 50 nM peptide
# How it was run: (§1)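 Detergent-solubilized integrins were coated on plates. Displacement of 0.06 nM 125I-echistatin by unlabeled peptide was measured at 5 nM and 50 nM. Experiments were run in triplicate.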
# αiibβ3 integrin = αiibβ3 integrin (Homo sapiens, UniProt P05106+P08514); assay: as above; format: binding; conditions: 0.06 nM 125I echistatin, 5 nM and 50 nM peptide
# How it was run: as §1
# αvβ3 integrin [2] = molecular target: T2, αvβ3 integrin (Homo sapiens, UniProt P05106+P06756); assay: as above; format: binding; conditions: 0.06 nM 125I echistatin, 5 nM and 50 nM peptide
# How it was run: as §1
# αvβ5 integrin = αvβ5 integrin (Homo sapiens, UniProt P06756+P18084); assay: as above; format: binding; conditions: 0.06 nM 125I echistatin, 5 nM and 50 nM peptide
# How it was run: as §1
# U87MG glioblastoma cells [3] = assay: Blocking of U87MG cell adhesion to vitronectin-coated plates; format: cell-based; conditions: vitronectin-coated wells
# Description: (§2) The present engineered peptides may be used in a variety of ways. If the peptides are attached to a surface, they may be used to attract/recruit cells to grow on the surface. For example, the present peptides may be applied to prosthetic devices, implants, bone grafts, and the like to promote tissue growth and healing at the site. They may be attached to culture dishes and promote attachment and differentiation of cells in culture. In addition, the present engineered peptides may be used to modulate cell binding to selected integrins such as α5β1, αvβ3 and αvβ5, particularly αvβ3, by adding the peptides to a cell culture to prevent cells expressing these integrins from adhering to a substrate. […] Also, the present 2.5F, 2.5D and 1.5B peptides were tested for blocking adhesion of U87MG glioblastoma cells to fibronectin-coated plates.
# (§3) In another experiment, the ability of engineered knottin peptides to block U87MG cell adhesion to vitronectin- and fibronectin-coated microtiter plates. Vitronectin is a natural ligand for several integrins, including αvβ3 and αvβ5. The RGD-containing peptides were all able to inhibit U87MG cell adhesion to vitronectin-coated plates in a dose-responsive manner. […] Fibronectin also binds to several integrins, (including αvβ3 and α5β1), but the α5β1 integrin receptor is generally selective for fibronectin.
# Whether the engineered AgRP peptides could block vitronectin-mediated adhesion to the U87MG cells was tested using an analogous assay. […] The AgRP peptides may not effectively block U87MG adhesion compared to the K562-αvβ3 cells because the αvβ5 integrins co-expressed on the surface of the U87MG cells could also contribute to vitronectin-mediated adhesion and compensate for the loss of αvβ3 integrin function.
# U87MG glioblastoma cells [4] = assay: Blocking of U87MG cell adhesion to fibronectin-coated plates; format: cell-based
# Description: as §2, §3
# K562-αvβ3 cells = assay: Inhibition of vitronectin-mediated adhesion of K562-αvβ3 cells; format: cell-based; conditions: vitronectin-coated microtiter wells
# Description: To determine whether the engineered AgRP peptides could inhibit cell adhesion mediated by vitronectin, the primary ligand for αvβ3 integrin, K562-αvβ3 cells were incubated with varying concentrations of peptides in microtiter wells coated with vitronectin to determine the ability of the peptides to inhibit cell adhesion. […] This difference may be a result of multivalent interactions between the cell surface αvβ3 integrins and the immobilized vitronectin, thereby making it more difficult for the peptides to compete.
# αvβ3 integrin [5] = molecular target: T2, αvβ3 integrin; conditions: cited from earlier work
# αvβ3 integrin [6] = molecular target: T2, αvβ3 integrin; assay: Yeast-displayed peptide binding to soluble αvβ3 integrin, flow cytometry; conditions: yeast-displayed peptides
# Description: The yeast display construct shown in FIG. 1A has the general orientation: Aga2-HA-engineered knottin—c-myc epitope, with the c-myc epitope at the carboxy terminus of the peptide. […] Bound integrin is detected with an anti-integrin antibody, labeled with FITC.
# Below is a typical protocol to label a yeast library samples for sorting by flow cytometry (FACS): • 1. Want 2×10^6 cells, OD600 of […] • 2. Add 1 mL PBS/BSA (phosphate buffered saline containing 1 mg/mL bovine serum albumin) to wash cells • 3. Spin down cells 3 min at 8000 RPM • 4. Remove supernatant using vacuum • 5. Re-suspend in 40 μL PBS/BSA containing proper amount of integrin (100 nM [2.5 μL of stock αvβ3]; no anti-cmyc at this point) • 6. Incubate for 1.5 h at r.t (w/tumbling) • 7. Add 1:250 dilution of (chick anti-cmyc) to labeling solution • 8. […] Incubate 1 h at 4° C. (w/tumbling) • 10. Keep on ice after this step. • 11. Spin down cells 3 min at 8000 RPM, 4° C. and vacuum supernatant • 12. Repeat wash steps 2-4 • 13. Re-suspend in 40 μL PBS/BSA containing proper amount of secondary labels (secondary labeling is simultaneous) • i. Anti-integrin Ab (FITC conj): 1:25 dilution+Anti-chick (Alexa 555): 1:100 dilution • ii. Positive control: Anti-chick (Alexa 555): 1:100 dilution (for FACS compensation) • iii. Positive control: Anti-chick (Alexa 488): 1:100 dilution (for FACS compensation) • 14. Incubate on ice 30 min and keep in dark (lid on ice bucket) • 15. Spin down cells at 3 min at 8000 RPM, 4° C. and vacuum supernatant • 16. Repeat steps 2-4: Add 1 mL PBS/BSA, pellet cells, vacuum supernatant • 17. Leave pelleted cells on ice until use. Fluorescent Cell Sorting
# Commercially available flow cytometers can measure fluorescence emissions at the single-cell level at four or more wavelengths, at a rate of approximately 50,000 cells per second (Ashcroft and Lopez, 2000). Typical flow cytometry data are shown in FIG. 4-7, in which yeast have been labeled with two different color fluorescent probes to measure protein expression levels and bound soluble ligand (in this case integrin receptor). A ‘diagonal’ population of cells results due to variation in protein expression levels on a per cell basis: cells that express more protein will bind more ligand. The equilibrium binding constant (Kd) can be determined by titration of soluble ligand, and the dissociation rate constant (koff) can be measured through competition binding of unlabeled ligand. With yeast, a monodispersity of tethered proteins exists over the cell surface, and soluble ligand are used for binding and testing, such that avidity effects are not observed, unlike other display methods using immobilized ligands. To date, the properties of most proteins expressed on the yeast cell surface mimic what is seen in solution in terms of stability and binding affinity (Bader et al., 2000; Feldhaus et al., 2003; Holler et al., 2000; VanAntwerp and Wittrup, 2000). See, also, Weaver-Feldhaus et al., “Directed evolution for the development of conformation-specific affinity reagents using yeast display,” Protein Engineering Design and Selection Sep. 26, 2005 18(11):527-536.
# Cell sorting was carried out on a FACSVantage (BD Biosciences) multiparameter laser flow cytometer and cell sorter. Before sorting, fluorescent staining was carried out as described above, so that analysis of integrin binding and c-myc expression levels were detected, as described above. […]
# [7] = tested on: subcutaneous U87MG glioblastoma tumors; assay: In vivo optical imaging of Cy5.5-labeled peptides in U87MG xenograft mice; set-up: species or system mouse
# Description: FIG. 8A is a series of 4 pictures showing in vivo imaging of Cy5.5-labeled polypeptides in mice. 1.5 nmol of Cy5.5-labeled EETI-RGD peptide 2.5D or other indicated peptide was injected by tail vein into U87MG glioblastoma xenograft mouse models and imaged at various time points post injection. Arrows indicate the position of tumors. […] Cy5.5-labeled FN-RDG negative control (bottom line, open squares) indicates background levels.
# Whole-body imaging of subcutaneous mouse xenografts were imaged with the IVIS 200 system (Xenogen) and quantified with Living Image 2.50.1 software.
# U87MG tumor = assay: MicroPET imaging and biodistribution of radiolabeled peptides in U87MG tumor-bearing mice; format: in vivo, mouse; conditions: radiolabeled peptides, U87MG tumor-bearing mice
# How it was run: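 Female athymic nude mice carrying subcutaneous U87MG xenografts (8–10 mm) received ~100 μCi 64Cu-DOTA peptides i.v. (tail vein); static microPET scans under 2% isoflurane. %ID/g obtained from ROIs on decay-corrected images assuming 1 g/mL density, without attenuation correction. Biodistribution measured by γ-counting of excised tissues, reported as %ID/g mean±SD.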
Molecule,IC50 ([1]; Cy5.5-labeled peptides (Cy5.5: Yes)) [nM],IC50 ([1]; unlabeled peptides (Cy5.5: No)) [nM],"binding to α5β1 integrin, in words (α5β1 integrin)","binding to αiibβ3 integrin, in words (αiibβ3 integrin)","binding to αvβ3 integrin, in words (αvβ3 integrin [2])","binding to αvβ5 integrin, in words (αvβ5 integrin)",IC50 (U87MG glioblastoma cells [3]) [nM],"blocking of U87MG cell adhesion to fibronectin, in words (U87MG glioblastoma cells [4])",IC50 (K562-αvβ3 cells) [nM],Kd (αvβ3 integrin [5]) [nM],integrin binding compared in words (αvβ3 integrin [6]),"tumor uptake / imaging signal of Cy5.5-labeled peptide, in words [7]","PET tumor targeting / imaging signal, in words (U87MG tumor)"
"ECESGPCCRNCKFLKEGTICKRARGDDMDDYCNGKTCDCPRNPHKGPAT (disulfide 2-11, 7-32, 8-37, 20-39 (inferred)) [Echistatin, echistatin]",2.6 ± 0.2,4.9 ± 1,binds strongly; also recorded: bound strongly,binds strongly; also recorded: bound strongly,binds strongly; also recorded: bound strongly,binds strongly; also recorded: bound strongly,5.8,blocked adhesion; also recorded: able to block,3.2 ± 2.7,0.3,,,
"CC(C)C[C@@H]1NC(=O)[C@@H]2CSSC[C@@H](C(=O)NCC(=O)O)NC(=O)[C@H](Cc3ccccc3)NC(=O)CNC(=O)[C@H](CC(N)=O)NC(=O)[C@@H]3CCCN3C(=O)CNC(=O)[C@@H]3CSSC[C@H](NC(=O)[C@H](CO)NC(=O)[C@H](CO)NC(=O)[C@H](C)NC(=O)[C@@H]4CCCN4C(=O)[C@H](CO)NC(=O)[C@H](CC(=O)O)NC(=O)CNC(=O)[C@H](CCCNC(=N)N)NC(=O)CNC(=O)[C@H]([C@@H](C)O)NC(=O)[C@H](C(C)C)NC(=O)[C@@H](NC(=O)CN)CSSC[C@H](NC(=O)CNC(=O)[C@H](C)NC1=O)C(=O)N[C@@H](C(C)C)C(=O)N3)C(=O)N[C@@H](CCCCN)C(=O)N[C@@H](CCC(N)=O)C(=O)N[C@@H](CC(=O)O)C(=O)N[C@@H](CO)C(=O)N[C@@H](CC(=O)O)C(=O)N2 [RGD-EETI#3] (H-GCVTGRGDSPASSCKQDSDCLAGCVCGPNGFCG-OH; disulfide 2-24, 14-26, 20-32; N-terminus and C-terminus assumed)",,,,,,,,,,,binds better than the 10th domain of fibronectin,significantly weaker imaging signals,significantly weaker imaging signals

# From US9265845B2, “Imaging methods using engineered integrin binding peptides” (The Board of Trustees of the Leland Stanford Junior …, priority 2006, dated 2016)
